According to article PMC5298241, “Mitochondria-penetrating peptides conjugated to desferrioxamine as chelators for mitochondrial labile iron” (PLoS ONE, 2017):
Where two headings read alike, the source gives them in different places. Numbered stars: 1 amine (or outer) side, 2 acyl side, 3 side chain; on linkers, the order of the positions; unused ones are H or OH. Square brackets hold non-standard residues; d marks the D form. Peptide text beside a SMILES is read from it. * marks the point of attachment. 5TAMRA = CN(C)c1ccc2c(c1)Oc1cc(N(C)C)ccc1C21OC(=O)c2cc(C(=O)*)ccc21; DFO = CC(=O)N(O)CCCCCNC(=O)CCC(=O)N(O)CCCCCNC(=O)CCC(=O)N(O)CCCCCN*; Cha = N[C@@H](CC1CCCCC1)C(=O)O; Suc = O=C(CCC(=O)[*:2])[*:1]

Experiments:
A2780 cells [1] = test system: A2780 cells
Description: (§1) A2780 (human ovarian cancer) cell line was obtained from Fox Chase Cancer Center (USA) and cultured in RPMI-1640 medium supplemented with 10% FBS and 1% penicillin/streptomycin. Cells were incubated at 37°C in a humidified incubator with a 5% CO2.
(§2) A2780 cells were plated in 96-well flat-bottom tissue culture plates (Starstedt) at 25,000 cells per well. The culture medium was removed, and cells were washed. Cellular viability was analyzed after an overnight incubation at 37°C with 5% CO2 using the CCK-8 viability dye (Dojindo, Rockville, Maryland) at an absorbance of 450 nm. From the resulting dose-response curves, 50% growth inhibitory concentration (IC50) values were determined by interpolation [22].

[2] = test system: mitochondria of A2780 cells; test: Mitochondrial localization (colocalization with MitoTracker Deep Red); type: cell-based, human; settings: TAMRA-labeled mtDFO 1–10 μM, 1 h, MitoTracker Deep Red 30 min, epifluorescence microscopy, ImageJ
Description: A2780 cells were seeded in an imaging dish in 2 mL of growth medium at 60% confluence. The growth medium was swapped with premixed medium containing 1–10 μM of TAMRA-mtDFO, and the cells were allowed to incubate with the dye for 1 h. MitoTracker Deep Red was added to the cells at 1.0–4.0 μM concentrations and allowed to incubate for 30 min. At the end of the incubation period, the medium was aspirated, and the cells were washed with 3 × 1 mL PBS and incubated with 2 mL of dye-free DMEM. The imaging experiments were performed using a Zeiss Axiovert 200M inverted epifluorescence microscope equipped with an EM-CCD digital camera (Hamamatsu) and a MS200 XY Piezo Z stage (Applied Scientific Instruments). The light source was an X-Cite 120 metal-halide lamp (EXFO), and the fluorescence images were obtained with an oil-immersion objective at 63× magnification. The microscope was operated by the Volocity software program of Perkin-Elmer. Colocalization of the dyes was quantitated using the program ImageJ using a previously described protocols.

A2780 cells [3] = test: cells; settings: Homo sapiens, A2780, 24 h
Description: as §1, §2

[4] = Antioxidant activity (iron-catalysed oxidation of DHR by ascorbate); type: biochemical; settings: 20 μM chelator, 40 μM ascorbic acid, 50 μM DHR in HBS; Fe(NTA) or serum of iron-overloaded patients; 37°C, slopes 15−40 min
Description: The standard ferric nitrilotriacetate (Fe(NTA)) complex (1:3 Fe:NTA molar ratio) was prepared by adding FAS to a stock solution of aqueous NTA, and allowed to react for 1 h at 37°C under air so that iron is oxidized to Fe(III) (evidenced by the change of color to deep yellow). Then, 180 μL of a mixture of 40 μM ascorbic acid, 50 μM DHR, and 20 μM chelators (DFO, DFO-Tat, DFO-1A, DFO-SS02 e DFO-SS20) in HBS was placed in a 96-well microplate and treated with 20 μL of either Fe(NTA) at different concentrations or sera from iron overloaded patients. Assays were performed in duplicate. Sera samples were furnished by Dr. Nelson Hamerschlak, Albert Einstein Hospital, São Paulo. Fluorescence was measured in a BMG FluoStar Optima instrument for 60 min at 37°C (λexc/λem = 485/520 nm). The slopes (indicating rate of oxidation, presented in fluorescence units per minute) of the oxidation curves were calculated in the time range 15−40 min and were plotted against iron concentration.

[5] = A2780 cells, 24 h (overnight incubation at 37°C, 5% CO2), CCK-8 viability dye, absorbance 450 nm, interpolation of dose-response curves, average ± s.d. of at least three independent experiments

CC(=O)N(O)CCCCCNC(=O)CCC(=O)N(O)CCCCCNC(=O)CCC(=O)N(O)CCCCCNC(=O)CCC(=O)N[C@@H](Cc1ccccc1)C(=O)N[C@H](CCCNC(=N)N)C(=O)N[C@@H](Cc1ccccc1)C(=O)N[C@@H](CCCCN)C(=O)N[C@@H](CCCCNC(=O)c1ccc2c(c1)C(=O)OC21c2ccc(N(C)C)cc2Oc2cc(N(C)C)ccc21)C(N)=O [DFO-SS20-TAMRA] ({DFO-Suc}-F[dR]FKK(5TAMRA)-NH2)
IC50 (A2780 cells [1]; 24 h): 7.91 ± 1.19 µM

CC(=O)N(O)CCCCCNC(=O)CCC(=O)N(O)CCCCCNC(=O)CCC(=O)N(O)CCCCCNC(=O)CCC(=O)N[C@@H](CC1CCCCC1)C(=O)N[C@H](CCCNC(=N)N)C(=O)N[C@@H](CC1CCCCC1)C(=O)N[C@@H](CCCCN)C(=O)N[C@@H](CC1CCCCC1)C(=O)N[C@H](CCCNC(=N)N)C(=O)N[C@@H](CC1CCCCC1)C(=O)N[C@@H](CCCCN)C(=O)N[C@@H](CCCCNC(=O)c1ccc2c(c1)C(=O)OC21c2ccc(N(C)C)cc2Oc2cc(N(C)C)ccc21)C(N)=O [DFO-1A-TAMRA] ({DFO-Suc}-[Cha][dR][Cha]K[Cha][dR][Cha]KK(5TAMRA)-NH2)
IC50 (A2780 cells [1]; 24 h): 2.97 ± 1.06 µM

CC(=O)N(O)CCCCCNC(=O)CCC(=O)N(O)CCCCCNC(=O)CCC(=O)N(O)CCCCCNC(=O)CCC(=O)N[C@@H](Cc1c(C)cc(O)cc1C)C(=O)N[C@H](CCCNC(=N)N)C(=O)N[C@@H](Cc1ccccc1)C(=O)N[C@@H](CCCCN)C(N)=O [DFO-SS02]
IC50 (A2780 cells [1]; [5]): 42.9 ± 1.06 µM

CC(=O)N(O)CCCCCNC(=O)CCC(=O)N(O)CCCCCNC(=O)CCC(=O)N(O)CCCCCNC(=O)CCC(=O)N[C@@H](CC1CCCCC1)C(=O)N[C@H](CCCNC(=N)N)C(=O)N[C@@H](CC1CCCCC1)C(=O)N[C@@H](CCCCN)C(=O)N[C@@H](CC1CCCCC1)C(=O)N[C@H](CCCNC(=N)N)C(=O)N[C@@H](CC1CCCCC1)C(=O)N[C@@H](CCCCN)C(N)=O [DFO-1A] ({DFO-Suc}-[Cha][dR][Cha]K[Cha][dR][Cha]K-NH2)
IC50 (A2780 cells [1]; 24 h): 108 ± 2.51 µM

carboxy-tetramethylrhodamine [TAMRA]
Rr = Pearson correlation coefficient (colocalization with MitoTracker) [2]: does not locate by itself in the mitochondria

CC(=O)N(O)CCCCCNC(=O)CCC(=O)N(O)CCCCCNC(=O)CCC(=O)N(O)CCCCCN [DFO, Desferrioxamine]
IC50 (A2780 cells [3]): 1450 ± 130 µM
Suppression of iron-catalysed oxidation of the DHR probe [4]: efficiently suppressed

CC(=O)N(O)CCCCCNC(=O)CCC(=O)N(O)CCCCCNC(=O)CCC(=O)N(O)CCCCCNC(=O)CCC(=O)N[C@@H](CCCNC(=N)N)C(=O)N[C@@H](CCCCN)C(=O)N[C@@H](CCCCN)C(=O)N[C@@H](CCCNC(=N)N)C(=O)N[C@@H](CCCNC(=N)N)C(=O)N[C@@H](CCC(N)=O)C(=O)N[C@@H](CCCNC(=N)N)C(=O)N[C@@H](CCCNC(=N)N)C(=O)N[C@@H](CCCNC(=N)N)C(=O)O [DFO-TAT]
IC50 (A2780 cells [1]; [5]): 111 ± 1.17 µM

CC(=O)N(O)CCCCCNC(=O)CCC(=O)N(O)CCCCCNC(=O)CCC(=O)N(O)CCCCCNC(=O)CCC(=O)N[C@@H](Cc1ccccc1)C(=O)N[C@H](CCCNC(=N)N)C(=O)N[C@@H](Cc1ccccc1)C(=O)N[C@@H](CCCCN)C(N)=O [DFO-SS20] ({DFO-Suc}-F[dR]FK-NH2)
IC50 (A2780 cells [1]; 24 h): 62.4 ± 1.13 µM
